{"source": "patent US7855228B2", "about": "“Antibiotics targeting MreB” (The Board of Trustees of the Leland Stamford Junior …, priority 2005, dated 2010)", "key": {"E. coli MG1655": {"tested_on": "E. coli MG1655", "assay": "Determination of minimum inhibitory concentration (MIC)", "assay_type": "cell-based", "settings": "Escherichia coli, read-out: MIC E. coli", "method_in_brief": "(§1)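 Two-fold serial agar dilution on L agar and also on Mueller Hinton agar (pH 7.3); 10 µl of stationary-phase culture diluted in 0.85% NaCl to 10^6 cells/ml spotted per plate. MIC taken as lowest concentration inhibiting growth.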"}, "B. subtilis 168": {"tested_on": "B. subtilis 168", "assay": "Determination of minimum inhibitory concentration (MIC)", "assay_type": "cell-based, Bacillus subtilis", "settings": "read-out: MIC B. subtilis", "method_in_brief": "as §1"}, "Caulobacter": {"tested_on": "Caulobacter", "assay": "Caulobacter morphology (DIC images)", "assay_type": "cell-based, Caulobacter crescentus", "from_the_text": "Consistent with previous observations in E. coli (Iwai et al., 2002), A22 caused a dose-dependent alteration of Caulobacter morphology, transforming normal, crescent-shaped cells into rounded, lemon-shaped cells. The progression of cell shape deformation by A22 treatment was qualitatively similar to that caused by mreB depletion, though the A22 effect was more rapid (FIGS. […]). […] For example, A22 could disrupt the localization of new cell wall synthesis but have no effect on the existing cell wall, such that without additional growth and wall synthesis A22's effects cannot be perceived. A dependence on cell growth could also explain why A22's effect on morphology takes several hours to manifest.\nMicroscopy and Timelapse Imaging. All experiments other than the A22 flow-cell analysis were performed by mounting the samples on 1% agarose pads as described, with the appropriate concentration of A22 added to the agarose. The rates of origin-distal locus segregation were determined by inducing PxyI:lacI:cfp expression with 0.03% xylose for 75 min, isolating swarmer cells, and growing the swarmer cells in M2G liquid medium for 50 min. After 50 min, 10 μg/ml of A22 was added to these liquid cultures, they were mounted onto 1% M2G agarose pads containing 10 μg/ml A22, and a phase and CFP fluorescence image was captured every 2 min for 60 min. The images were analyzed by previously described software to determine the average position and rate of movement of the observed foci."}, "HoIB-GFP": {"tested_on": "HoIB-GFP", "assay": "HoIB-GFP (replisome) localization", "assay_type": "cell-based, Caulobacter crescentus", "settings": "1 hr treatment", "protocol": "To assess the ability of these cells to assemble a replisome at the replication origins, A22 was administered to cells expressing a fusion of GFP to the HoIB subunit of DNA polymerase."}, "[1]": {"tested_on": "E. coli K-12 strains (ponB, mreB alleles)", "assay": "MICs of mecillinam and A22 for E. coli K-12 strains", "assay_type": "cell-based", "settings": "for MIC: Escherichia coli", "protocol": "Determination of MIC Minimal inhibitory concentrations (MICs) were determined using a standard 2-fold serial dilution format on L agar plates. Ten microliters of stationary culture diluted in 0.85% NaCl to 10^6 cells/ml were spotted on per plate. […] MICs were also determined on Mueller Hinton agar plates (0.2% beef extract, 1.75% acid digest of casein, 0.15% soluble starch, 1.5% agar, pH 7.3)."}, "[2]": {"tested_on": "Caulobacter chromosomal loci (origin, origin-distal loci)", "assay": "Chromosome segregation of FROS-labeled loci", "assay_type": "cell-based, Caulobacter crescentus", "from_the_text": "A22 Treatment Blocks Chromosome Segregation. Having established that A22 targets MreB and rapidly disrupts its localization, we used A22 to assess the acute role of MreB in chromosome segregation. To this end we took advantage of strains previously generated in our group that use the fluorescent repressor-operator system (FROS) to simultaneously label two specific chromosomal loci in the same living cell. This system uses fusions of two DNA binding proteins, the lac repressor (LacI) and the Tet repressor (tetR), to CFP and YFP, respectively. Two arrays, each containing multiple tandem repeats of either the LacI or TetR binding sites, are integrated into different chromosomal loci. Each fusion protein clusters at its respective array, causing the cellular address of that array to fluoresce in a detectable fashion.\nSynchronized swarmer cells with lac arrays at the origin locus and tet arrays at the midcell-positioned CC2943 locus (FIG. 5A) were incubated with 10 μg/ml A22. After varying periods of time in the presence of A22, the cellular positions of the origin and CC2943 were examined by fluorescence microscopy. The cultures continued to increase in cell mass, as measured by an increase in optical density, but cell division was blocked. […] This effect was reversible, since upon washing out the A22 drug, the origins were rapidly and normally segregated.\nTreatment of swarmer cells with A22 before the origins have segregated blocks the movement of chromosomal loci. […]\nThough origin-distal loci can separate in the presence of A22, MreB could still partially contribute to their cellular positioning and rate of movement across the cell. Technical considerations prevent the quantitative analysis of locus movement in doubly labeled cells. Thus, to quantitatively assess the role of MreB in origin-distal locus segregation, we examined two singly labeled strains, one with CC0786 marked at 860 kb to the right of the origin, and one with CC3192 marked at 576 kb to the left of the origin. […] The timelapses were analyzed using automated software that provides the absolute position of each locus in each cell. […]\nMicroscopy and Timelapse Imaging. […] The rates of origin-distal locus segregation were determined by inducing PxyI:lacI:cfp expression with 0.03% xylose for 75 min, isolating swarmer cells, and growing the swarmer cells in M2G liquid medium for 50 min. After 50 min, 10 μg/ml of A22 was added to these liquid cultures, they were mounted onto 1% M2G agarose pads containing 10 μg/ml A22, and a phase and CFP fluorescence image was captured every 2 min for 60 min. The images were analyzed by previously described software to determine the average position and rate of movement of the observed foci."}, "P. putida NBRC14164": {"tested_on": "P. putida NBRC14164", "assay": "Determination of minimum inhibitory concentration (MIC)", "assay_type": "cell-based, Pseudomonas putida", "settings": "Pseudomonas putida, read-out: MIC P. putida", "method_in_brief": "as §1"}, "S. typhimurium NBRC13245": {"tested_on": "S. typhimurium NBRC13245", "assay": "Determination of minimum inhibitory concentration (MIC)", "assay_type": "cell-based, Salmonella typhimurium", "settings": "Salmonella enterica, read-out: MIC S. typhimurium", "method_in_brief": "as §1"}}, "note": "Entries after “also recorded” stand apart in the source; their conditions may differ. Where two headings read alike, the source gives them in different places.", "data": [{"smiles": "N=C(N)SCc1ccc(Cl)c(Cl)c1", "note": "[Compound 1, S-(3,4-dichlorobenzyl)isothiourea]", "values": [{"measurement": "MIC", "setting": "E. coli MG1655; MG1655, Example 2, methods as in Example 1", "value": 3.13, "unit": "µg/mL"}, {"measurement": "MIC", "setting": "E. coli MG1655; MG1655, Table 1, E. coli MG1655", "value": 3.13, "unit": "µg/mL"}, {"measurement": "MIC", "setting": "B. subtilis 168; Bacillus subtilis, 168, Example 2, methods as in Example 1", "value": 100, "unit": "µg/mL"}, {"measurement": "MIC", "setting": "B. subtilis 168; Bacillus subtilis, 168, Table 1, B. subtilis 168", "value": 100, "unit": "µg/mL"}, {"measurement": "Caulobacter growth and cell shape", "setting": "Caulobacter; 100 μg/ml", "value": "completely blocked growth but did not cause Caulobacter to round up"}, {"measurement": "Caulobacter growth and cell shape", "setting": "Caulobacter; 0.1, 1, and 10 μg/ml", "value": "both slowed cell growth and altered cell shape"}, {"measurement": "HoIB-GFP localization", "setting": "HoIB-GFP", "value": "no effect on HoIB-GFP localization"}, {"measurement": "MIC", "setting": "[1]; read-out: MICs, strain JA221 (ponB −, mreB221)", "value": 100, "unit": "µg/mL"}, {"measurement": "MIC", "setting": "[1]; read-out: MICs, strain JE1011 (ponB +, mreB +)", "value": 6.25, "unit": "µg/mL"}, {"measurement": "MIC", "setting": "[1]; read-out: MICs, strain JM109/pMW218 (ponB +, mreB +/−)", "value": 6.25, "unit": "µg/mL"}, {"measurement": "MIC", "setting": "[1]; read-out: MICs, strain JM109/pMreB1 (ponB +, mreB +/+)", "value": 25, "unit": "µg/mL"}, {"measurement": "MIC", "setting": "[1]; read-out: MICs, strain JM109/pMreB221 (ponB +, mreB +/mreB221)", "value": 100, "unit": "µg/mL"}, {"measurement": "MIC", "setting": "[1]; read-out: MICs, strain JST975 (ponB −, mreB +)", "value": 1.6, "unit": "µg/mL"}, {"measurement": "MIC", "setting": "[1]; read-out: MICs, strain JSTA220 (ponB −, mreB +)", "value": 3.12, "unit": "µg/mL"}, {"measurement": "MIC", "setting": "[1]; read-out: MICs, strain JSTA221 (ponB −, mreB221)", "value": 100, "unit": "µg/mL"}, {"measurement": "MIC", "setting": "[1]; read-out: MICs, strain WA220 (ponB +, mreB +)", "value": 6.25, "unit": "µg/mL"}, {"measurement": "MIC", "setting": "[1]; read-out: MICs, strain WA221 (ponB +, mreB221)", "value": "> 100", "unit": "µg/mL"}, {"measurement": "MICs", "setting": "[1]; strain JST975 (ponB −, mreB +), listed as A22", "value": 3.125, "unit": "µg/mL"}, {"measurement": "Origin segregation in cells with T158A A22-resistant mreB allele", "setting": "[2]; 10 μg/ml", "value": "successfully segregated"}, {"measurement": "Locus position and rate of segregation of CC0786 and CC3192", "setting": "[2]; 10 μg/ml added after 50 min, timelapse 60 min", "value": "unaffected"}, {"measurement": "Foci of origin and CC2943 loci in swarmer cells", "setting": "[2]; 10 μg/ml added to synchronized swarmer cells, 30-180 min", "value": "only one focus for each locus"}, {"measurement": "Separation of origin-distal loci (CC2943, CC3300, CC3656, CC0091)", "setting": "[2]; A22 added after origin segregation (30 min), listed as A22", "value": "proceeded to replicate and separate their CC2943 locus into two foci; also recorded: duplicated and separated in the presence of A22"}, {"measurement": "MIC", "setting": "P. putida NBRC14164; NBRC14164, Example 2, methods as in Example 1", "value": 100, "unit": "µg/mL"}, {"measurement": "MIC", "setting": "P. putida NBRC14164; NBRC14164, Table 1, NBRC14164", "value": 100, "unit": "µg/mL"}, {"measurement": "MIC", "setting": "S. typhimurium NBRC13245; Example 2, methods as in Example 1", "value": 3.13, "unit": "µg/mL"}, {"measurement": "MIC", "setting": "S. typhimurium NBRC13245; Table 1, NBRC13245", "value": 3.13, "unit": "µg/mL"}]}]}
